Tested on: hepatocytes
Test: Seq-Well scRNA-Seq of hepatocytes after APAP overdose (signature scores, DEG vs untreated)
Format: in vivo, mouse
Conditions: A6 vs UT

With `CC(=O)Nc1ccc(O)cc1` [APAP, acetaminophen] the “Ash11 A6logFC” value was 0.2657, the “Asl avg_logFC” value was 0.5586 and the “Atf4 A6logFC” value was 0.3411. For the same compound, the “Atf6 A6logFC” value was 0.3778, the “Atox1 avg_logFC” value was −0.4462 and the “Atox1 pct.1” value was 0.382. The “Atp1a1 avg_logFC” value was 0.4191, the “Atp1a1 pct.1” value was 0.53 and the “Atp1b1 A6logFC” value was 0.3702. The “Atp2a2 avg_logFC” value was 0.495, the “Atp2b1 A6logFC” value was 0.3321 and the “Atp5e avg_logFC” value was −0.6502. For the same compound, the “Atp5f1 avg_logFC” value was −0.5171, the “Atp5f1 pct.1” value was 0.69 and the “Atp5j2 avg_logFC” value was −0.5131. The “Atp5j2 pct.1” value was 0.606, the “Atp5k avg_logFC” value was −0.4773 and the “Atp5k pct.1” value was 0.368. The “Atp13a3 avg_logFC” value was 0.3945, the “Atp13a3 pct.1” value was 0.532 and the “Atp5h avg_logFC” value was −0.6398. For the same compound, the “B2m avg_logFC” value was −0.3304, the “B2m pct.1” value was 0.871 and the “B4galt5 avg_logFC” value was 0.4763. For the same compound, the “BC005537 A6logFC” value was 0.3543, the “Bach1 avg_logFC” value was 0.8323 and the “Bbox1 avg_logFC” value was −0.4082. The “Bbox1 pct.1” value was 0.308, the “Bc1af1 A6logFC” value was 0.2685 and the “Bcl2l1 avg_logFC” value was 0.7751. The “Bcl3 avg_logFC” value was 0.289, the “Bcl3 pct.1” value was 0.277 and the “Bclaf1 avg_logFC” value was 0.2685. For the same compound, the “Bclaf1 pct.1” value was 0.372, the “Bdh1 avg_logFC” value was −0.2936 and the “Bdh1 pct.1” value was 0.315. The “Bdhl A6logFC” value was −0.2936, the “Bet1 A6logFC” value was −0.2966 and the “Birc6 A6logFC” value was 0.3444. For the same compound, the “Birc6 avg_logFC” value was 0.3444, the “Birc6 pct.1” value was 0.446 and the “Blvrb avg_logFC” value was −0.5451. For the same compound, the “Blvrb pct.1” value was 0.286, the “Bphl avg_logFC” value was −0.4075 and the “Bphl pct.1” value was 0.339. The “Brd2 A6logFC” value was 0.5715, the “Brd2 avg_logFC” value was 0.5715 and the “Brd2 pct.1” value was 0.542. For the same compound, the “Bst2 A6logFC” value was −0.3156, the “Btaf1 A6logFC” value was 0.2755 and the “Btaf1 avg_logFC” value was 0.2755. For the same compound, the “Btaf1 pct.1” value was 0.284, the “Btg1 avg_logFC” value was 0.458 and the “Btg1 pct.1” value was 0.356. For the same compound, the “Btg2 avg_logFC” value was 0.8321, the “Bzw1 avg_logFC” value was 0.2948 and the “Bzw1 pct.1” value was 0.475. The “C1qa avg_logFC” value was 0.5148, the “C1qa pct.1” value was 0.174 and the “C1qc avg_logFC” value was 0.5861. The “C1qc pct.1” value was 0.172, the “C8g avg_logFC” value was −0.6545 and the “C1d A6logFC” value was −0.2553. The “C1d avg_logFC” value was −0.2553, the “C1d pct.1” value was 0.208 and the “C230081A13Rik avg_logFC” value was 0.427. For the same compound, the “Cald1 avg_logFC” value was 0.3737, the “Cald1 pct.1” value was 0.766 and the “Cap1 A6logFC” value was 0.3251. For the same compound, the “Cap1 avg_logFC” value was 0.3251, the “Cap1 pct.1” value was 0.356 and the “Car3 avg_logFC” value was −1.036. For the same compound, the “Car5a A6logFC” value was −0.3088, the “Cbr1 avg_logFC” value was 0.2847 and the “Cbr1 pct.1” value was 0.494. For the same compound, the “Ccbl1 avg_logFC” value was −0.3649, the “Ccbl1 pct.1” value was 0.205 and the “Ccdc50 A6logFC” value was 0.2858. For the same compound, the “Ccdc50 avg_logFC” value was 0.2858, the “Ccdc50 pct.1” value was 0.401 and the “Ccl6 avg_logFC” value was 0.7891. For the same compound, the “Ccnl1 A6logFC” value was 0.2566, the “Ccnl1 avg_logFC” value was 0.2566 and the “Ccnl1 pct.1” value was 0.351. The “Ccs avg_logFC” value was −0.4267, the “Ccs pct.1” value was 0.42 and the “Cd5l avg_logFC” value was 0.6935. The “Cd14 avg_logFC” value was 0.3621, the “Cd44 avg_logFC” value was 0.3037 and the “Cd44 pct.1” value was 0.115. For the same compound, the “Cd53 avg_logFC” value was 0.2656, the “Cd53 pct.1” value was 0.103 and the “Cd74 avg_logFC” value was 0.4539. For the same compound, the “Cd74 pct.1” value was 0.155, the “Cd97 avg_logFC” value was 0.3458 and the “Cd97 pct.1” value was 0.115. The “Cd163 avg_logFC” value was 0.4408, the “Cd163 pct.1” value was 0.146 and the “Cd302 avg_logFC” value was −0.5499. The “Cdh1 A6logFC” value was 0.2697, the “Cdh1 avg_logFC” value was 0.2697 and the “Cdh1 pct.1” value was 0.327. For the same compound, the “Cdkn1a avg_logFC” value was 1.215, the “Cebpa avg_logFC” value was −0.3916 and the “Cebpa pct.1” value was 0.442. For the same compound, the “Cela1 A6logFC” value was −0.2723, the “Cep85 A6logFC” value was 0.2839 and the “Cep85 avg_logFC” value was 0.2839. For the same compound, the “Cep85 pct.1” value was 0.313, the “Cers6 avg_logFC” value was 0.5328 and the “Ces3a avg_logFC” value was −0.5253. For the same compound, the “Ces3b avg_logFC” value was −0.3664, the “Ces3b pct.1” value was 0.57 and the “Cfhr1 A6logFC” value was −0.3253. For the same compound, the “Cfp avg_logFC” value was 0.3562, the “Cfp pct.1” value was 0.143 and the “Chac2 avg_logFC” value was −0.2865. The “Chac2 pct.1” value was 0.057, the “Chchd1 avg_logFC” value was −0.4398 and the “Chchd1 pct.1” value was 0.21. For the same compound, the “Chchd2 avg_logFC” value was −0.5525, the “Chchd10 avg_logFC” value was −0.4019 and the “Chchd10 pct.1” value was 0.802. The “Chd1 avg_logFC” value was 0.3788, the “Chd1 pct.1” value was 0.377 and the “Chic2 avg_logFC” value was 0.4198. For the same compound, the “Chic2 pct.1” value was 0.37, the “Chka avg_logFC” value was 1.375 and the “Chmp4b A6logFC” value was 0.3002. The “Chuk A6logFC” value was 0.3724, the “Cidec avg_logFC” value was 0.2994 and the “Cldn2 A6logFC” value was −0.2511. For the same compound, the “Cldn14 avg_logFC” value was 0.3645, the “Cldn14 pct.1” value was 0.32 and the “Clec4f avg_logFC” value was 1.108. The “Clec4d avg_logFC” value was 0.2636, the “Clec4d pct.1” value was 0.107 and the “Clic4 A6logFC” value was 0.2998. The “Clic4 avg_logFC” value was 0.2998, the “Clic4 pct.1” value was 0.368 and the “Clqb avg_logFC” value was 0.6817. The “Cltc avg_logFC” value was 0.785, the “Cmbl avg_logFC” value was −0.4427 and the “Cmbl pct.1” value was 0.415. For the same compound, the “Cml1 avg_logFC” value was −0.6142, the “Coa6 avg_logFC” value was −0.4114 and the “Coa6 pct.1” value was 0.15. For the same compound, the “Coasy A6logFC” value was −0.2534, the “Coasy avg_logFC” value was −0.2534 and the “Coasy pct.1” value was 0.327. The “Commd3 A6logFC” value was −0.2656, the “Commd3 avg_logFC” value was −0.2656 and the “Commd3 pct.1” value was 0.274. For the same compound, the “Commd6 avg_logFC” value was −0.3645, the “Commd6 pct.1” value was 0.172 and the “Cox4i1 avg_logFC” value was −0.516. The “Cox5b avg_logFC” value was −0.4988, the “Cox5b pct.1” value was 0.425 and the “Cox6a1 avg_logFC” value was −0.4872. The “Cox6a1 pct.1” value was 0.675, the “Cox6c avg_logFC” value was −0.8443 and the “Cox7a2 avg_logFC” value was −0.6503. The “Cox7b avg_logFC” value was −0.6422, the “Cp avg_logFC” value was 0.2541 and the “Cp pct.1” value was 0.89. For the same compound, the “Creb3l2 avg_logFC” value was 0.4272, the “Crp avg_logFC” value was −0.5069 and the “Crp pct.1” value was 0.477. The “Csad avg_logFC” value was −0.5598, the “Csad pct.1” value was 0.473 and the “Csrp3 A6logFC” value was −0.294. For the same compound, the “Ctnnd1 A6logFC” value was 0.2518, the “Ctnnd1 avg_logFC” value was 0.2518 and the “Ctnnd1 pct.1” value was 0.358. For the same compound, the “Ctsb A6logFC” value was 0.5213, the “Ctsb avg_logFC” value was 0.5213 and the “Ctsb pct.1” value was 0.804. The “Ctsc A6logFC” value was 0.361, the “Ctsl avg_logFC” value was 0.5301 and the “Ctss avg_logFC” value was 0.7642. The “Cu11 A6logFC” value was 0.2592, the “Cu13 A6logFC” value was 0.2788 and the “Cul1 avg_logFC” value was 0.2592. The “Cul1 pct.1” value was 0.425, the “Cul3 avg_logFC” value was 0.2788 and the “Cul3 pct.1” value was 0.415. The “Cxadr avg_logFC” value was 0.6985, the “Cxcl12 avg_logFC” value was −0.3058 and the “Cxcl12 pct.1” value was 0.251. The “Cyb5 avg_logFC” value was −0.7102, the “Cybb A6logFC” value was 0.3778 and the “Cyp4a10 avg_logFC” value was 0.4566. For the same compound, the “Cyp4a10 pct.1” value was 0.687, the “Cyp4a14 avg_logFC” value was 1.122 and the “Cyp4f15 A6logFC” value was −0.2998. The “D10Wsu102e avg_logFC” value was 0.5878, the “Dbi avg_logFC” value was −0.7164 and the “Dcaf11 avg_logFC” value was −0.2817. For the same compound, the “Dcaf11 pct.1” value was 0.446, the “Dcxr avg_logFC” value was −0.4409 and the “Dcxr pct.1” value was 0.37. For the same compound, the “Ddah1 A6logFC” value was −0.312.
